According to patent publication US20220389515A1, “USE OF BIOMARKERS TO PREDICT CLINICAL SENSITIVITY TO 2-(4-CHLOROPHENYL)-N-((2-(2,6-DIOXOPIPERIDIN-3-YL)-1-OXOISOINDOLIN-5-YL)METHYL)-2,2-DIFLUOROACETAMIDE” (priority 2019, published 2022):

Test system: U937 cells stably expressing Cas9
Test: Genome-wide CRISPR-Cas9 screen of Compound D response
Assay type: cell-based, human
Procedure: FIG. 4A illustrates the schematic showing the design of the genome-wide CRISPR screen to identify molecular determinants of Compound D response. FIG. 4B illustrates the cell proliferation curve of U937-Cas9 cells transduced with the lentiviral sgRNA library and treated with DMSO or Compound D. Three days post-transduction, cells were treated with DMSO or 10 μM Compound D for 9 days. FIG. 4C illustrates normalized sgRNA read count comparison of different treatment conditions and technical replicates on day 3 and day 12 post-transduction of the lentiviral sgRNA library. 150 k sgRNAs are used in the scatter plots. Numbers in the upper right boxes indicate the Pearson correlation coefficient between samples. “***” indicates the correlation p-value is <0.001. sgRNAs targeting UBE2G1 or CRBN were shown in green and red, respectively. FIG. 4D illustrates pathway enrichment analysis of genes enriched by Compound D treatment with log 2 fold change (log 2FC)>2 and false discovery rate (FDR)<0.05 relative to the DMSO control. The color and size of the dots represent adjusted significance level and gene ratio respectively. Gene ratios refer to the number of input genes annotated to an individual pathway as a ratio of all input genes annotated to any Reactome pathway. […] The X axis denotes the Compound D enrichment score shown as log 2FC; the Y axis denotes the gene essentiality score shown as log 2FC (T12_DMSO vs T3_DMSO). Some of these genes were grouped into 10 functional modules with different color coding. […] Enriched pathways from the Reactome database were identified using Fisher's exact test and were selected by adjusted p-value (FDR)<0.05. Pathway nodes are color-coded with different shades of red according to their statistical significance. The grey nodes in the graph depict pathway genes that were enriched by Compound D treatment. The core enriched pathways modulating the response to Compound D are highlighted with green circles. FIGS. 4G and 4H show the log 2FC values of sgRNAs targeting Compound D enriched genes in the functional modules as indicated. […]

SMILES: O=C1CCC(N2Cc3cc(CNC(=O)C(F)(F)c4ccc(Cl)cc4)ccc3C2=O)C(=O)N1 (stereo not drawn) [Compound D, 2-(4-chlorophenyl)-N-((2-(2,6-dioxopiperidin-3-yl)-1-oxoisoindolin-5-yl)methyl)-2,2-difluoroacetamide]
- growth of U937 cells transduced with the lentiviral CRISPR library (10 μM, 9 days): growth arrest of U937 cells
- genes whose knockout conferred resistance (sgRNA enrichment) (U937-Cas9, 1 μM or 10 μM): knockout of CRBN, TSC1, TSC2, ILF2, ILF3, ATF4, GCN2, DDIT4 or GCN1L1 genes conferred resistance to lethal doses of Compound D
- genes whose knockout enhanced sensitivity (sgRNA drop-out) (U937-Cas9, sensitivity screen): knockout of RPTOR, MTOR, RICTOR, GSPT1 or DDX5 enhanced sensitivity to lethal doses of Compound D
